From ChEMBL document CHEMBL2424616, “Synthesis and antimicrobial activity of novel 5-(1-adamantyl)-2-aminomethyl-4-substituted-1,2,4-triazoline-3-thiones” (2013)
In brackets after ≈: the same amount, converted by molar mass.

Columns and labels:
Assay type in all cases: functional
[1] = system: Bacillus subtilis; assay: Antibacterial activity against Bacillus subtilis IFO 3007 assessed as growth inhibition at 200 ug/disc after 24 hrs by agar disc-diffusion method; conditions: IFO 3007, 24 h, read-out: DIZ
[2] = system: Candida albicans; assay: Antifungal activity against Candida albicans IFO 0583 assessed as growth inhibition at 200 ug/disc after 48 hrs by agar disc-diffusion method; conditions: IFO 0583, 48 h, read-out: DIZ
[3] = system: Staphylococcus aureus; assay: Antibacterial activity against Staphylococcus aureus IFO 3060 assessed as growth inhibition at 200 ug/disc after 24 hrs by agar disc-diffusion method; conditions: IFO 3060, 24 h, read-out: DIZ
[4] = system: Pseudomonas aeruginosa; assay: Antibacterial activity against Pseudomonas aeruginosa IFO 3448 assessed as growth inhibition at 200 ug/disc after 24 hrs by agar disc-diffusion method; conditions: IFO 3448, 24 h, read-out: DIZ
[5] = system: Micrococcus luteus; assay: Antibacterial activity against Micrococcus luteus IFO 3232 assessed as growth inhibition at 200 ug/disc after 24 hrs by agar disc-diffusion method; conditions: IFO 3232, 24 h, read-out: DIZ
[6] = system: Bacillus subtilis; assay: Antibacterial activity against Bacillus subtilis IFO 3007 after 24 hrs by two fold dilution method; conditions: IFO 3007, 24 h
[7] = system: Staphylococcus aureus; assay: Antibacterial activity against Staphylococcus aureus IFO 3060 after 24 hrs by two fold dilution method; conditions: IFO 3060, 24 h
[8] = system: Escherichia coli; assay: Antibacterial activity against Escherichia coli IFO 3301 assessed as growth inhibition at 200 ug/disc after 24 hrs by agar disc-diffusion method; conditions: IFO 3301, 24 h, read-out: DIZ

| Structure (SMILES) | zone of inhibition at 200 µg/disc [1] | zone of inhibition at 200 µg/disc [2] | zone of inhibition at 200 µg/disc [3] | zone of inhibition at 200 µg/disc [4] | zone of inhibition at 200 µg/disc [5] | MIC [6] | MIC [7] | zone of inhibition at 200 µg/disc [8] |
| --- | --- | --- | --- | --- | --- | --- | --- | --- |
| Oc1ccccc1/C=N/n1c(C23CC4CC(CC(C4)C2)C3)nn(CN2CCN(Cc3ccccc3)CC2)c1=S | 21 mm | < 10 mm | 19 mm | 11 mm | 17 mm | 2 µg/mL (≈ 3.68 µM) | 2 µg/mL (≈ 3.68 µM) | 11 mm |
| Fc1cccc(F)c1NCn1nc(C23CC4CC(CC(C4)C2)C3)n(-c2ccc(Cl)cc2)c1=S | 20 mm | 13 mm | 18 mm | 11 mm | 17 mm | 8 µg/mL (≈ 16.4 µM) |  | 14 mm |
| FC(F)(F)c1ccccc1NCn1nc(C23CC4CC(CC(C4)C2)C3)n(-c2ccc(Cl)cc2)c1=S | 19 mm | < 10 mm | 17 mm | 11 mm | 14 mm | 16 µg/mL (≈ 30.8 µM) |  | 12 mm |
| CCOc1ccc(NCn2nc(C34CC5CC(CC(C5)C3)C4)n(C)c2=S)cc1 | < 10 mm | < 10 mm | < 10 mm | < 10 mm | < 10 mm |  |  | < 10 mm |
| S=c1n(CN2CCN(c3ccccc3)CC2)nc(C23CC4CC(CC(C4)C2)C3)n1-c1ccc(Cl)cc1 | 17 mm | < 10 mm | 16 mm | < 10 mm | 14 mm |  |  | < 10 mm |
| Cn1c(C23CC4CC(CC(C4)C2)C3)nn(CNc2ccccc2)c1=S | 12 mm | < 10 mm | < 10 mm | < 10 mm | < 10 mm |  |  | < 10 mm |
| S=c1n(CNc2ccccc2Cl)nc(C23CC4CC(CC(C4)C2)C3)n1-c1ccc(Cl)cc1 | 11 mm | < 10 mm | 16 mm | < 10 mm | < 10 mm |  |  | < 10 mm |
| Fc1ccc(NCn2nc(C34CC5CC(CC(C5)C3)C4)n(-c3ccc(Cl)cc3)c2=S)cc1 | 16 mm | < 10 mm | 14 mm | < 10 mm | 12 mm |  |  | < 10 mm |
| S=c1n(CNc2ccccc2)nc(C23CC4CC(CC(C4)C2)C3)n1-c1ccc(Cl)cc1 | < 10 mm | < 10 mm | < 10 mm | < 10 mm | < 10 mm |  |  | < 10 mm |
| CCOC(=O)N1CCN(Cn2nc(C34CC5CC(CC(C5)C3)C4)n(/N=C/c3ccccc3O)c2=S)CC1 | 19 mm | < 10 mm | 18 mm | < 10 mm | 16 mm | 4 µg/mL (≈ 7.62 µM) | 4 µg/mL (≈ 7.62 µM) | < 10 mm |
| COc1ccccc1N1CCN(Cn2nc(C34CC5CC(CC(C5)C3)C4)n(-c3ccc(Cl)cc3)c2=S)CC1 | 18 mm | < 10 mm | 18 mm | < 10 mm | 16 mm | 16 µg/mL (≈ 29.1 µM) | 16 µg/mL (≈ 29.1 µM) | < 10 mm |
| S=c1n(CN2CCN(Cc3ccccc3)CC2)nc(C23CC4CC(CC(C4)C2)C3)n1-c1ccc(Cl)cc1 | 12 mm | < 10 mm | 11 mm | < 10 mm | 11 mm |  |  | < 10 mm |
| Cn1c(C23CC4CC(CC(C4)C2)C3)nn(CNc2ccc(Br)cc2)c1=S | < 10 mm | < 10 mm | < 10 mm | < 10 mm | < 10 mm |  |  | < 10 mm |
| CCOc1ccc(NCn2nc(C34CC5CC(CC(C5)C3)C4)n(-c3ccc(Cl)cc3)c2=S)cc1 | < 10 mm | < 10 mm | < 10 mm | < 10 mm | < 10 mm |  |  | < 10 mm |
| Cn1c(C23CC4CC(CC(C4)C2)C3)nn(CNc2ccc(F)cc2)c1=S | 12 mm | < 10 mm | 12 mm | < 10 mm | < 10 mm |  |  | < 10 mm |
| S=c1n(CNc2cc(Cl)cc(Cl)c2)nc(C23CC4CC(CC(C4)C2)C3)n1-c1ccc(Cl)cc1 | 13 mm | < 10 mm | 12 mm | < 10 mm | 11 mm |  |  | < 10 mm |
| CCOC(=O)N1CCN(Cn2nc(C34CC5CC(CC(C5)C3)C4)n(/N=C/c3ccc(O)cc3)c2=S)CC1 | 16 mm | < 10 mm | 17 mm | < 10 mm | 14 mm |  |  | < 10 mm |
| S=c1n(CNc2ccc(Br)cc2)nc(C23CC4CC(CC(C4)C2)C3)n1-c1ccc(Cl)cc1 | < 10 mm | < 10 mm | < 10 mm | < 10 mm | < 10 mm |  |  | < 10 mm |
| Cn1c(C23CC4CC(CC(C4)C2)C3)nn(CN2CCN(c3ccccc3)CC2)c1=S | 18 mm | < 10 mm | 19 mm | < 10 mm | 14 mm | 16 µg/mL (≈ 37.8 µM) | 8 µg/mL (≈ 18.9 µM) | < 10 mm |
| FC(F)(F)c1cccc(NCn2nc(C34CC5CC(CC(C5)C3)C4)n(-c3ccc(Cl)cc3)c2=S)c1 | 16 mm | < 10 mm | 16 mm | < 10 mm | 17 mm |  |  | < 10 mm |
| Fc1ccccc1NCn1nc(C23CC4CC(CC(C4)C2)C3)n(-c2ccc(Cl)cc2)c1=S | 12 mm | < 10 mm | 11 mm | < 10 mm | 12 mm |  |  | < 10 mm |
| CCN1CCN(Cn2nc(C34CC5CC(CC(C5)C3)C4)n(-c3ccc(Cl)cc3)c2=S)CC1 | 18 mm | < 10 mm | 14 mm | < 10 mm | 15 mm | 8 µg/mL (≈ 16.9 µM) |  | < 10 mm |
